Reference: PubChem BioAssay (NCI)
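Assay format: 96-well plates, 48-hour exposure. GI50: concentration for 50% inhibition of growth. TGI is the concentration that stops growth completely.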

Key:
Experiment in all cases: DTP human tumour cell line panel, 48 h
786-0 renal = tested on: 786-0 renal
A498 renal = tested on: A498 renal
A549 NSCLC = tested on: A549 NSCLC
ACHN renal = tested on: ACHN renal
BT-549 breast = tested on: BT-549 breast
CCRF-CEM leukemia = tested on: CCRF-CEM leukemia
COLO 205 colon = tested on: COLO 205 colon
DU-145 prostate = tested on: DU-145 prostate
EKVX NSCLC = tested on: EKVX NSCLC
HCC-2998 colon = tested on: HCC-2998 colon
HCT-116 colon = tested on: HCT-116 colon
HCT-15 colon = tested on: HCT-15 colon
HL-60(TB) leukemia = tested on: HL-60(TB) leukemia
HOP-62 NSCLC = tested on: HOP-62 NSCLC
HOP-92 NSCLC = tested on: HOP-92 NSCLC
HS 578T breast = tested on: HS 578T breast
HT29 colon = tested on: HT29 colon
IGROV1 ovarian = tested on: IGROV1 ovarian
K-562 leukemia = tested on: K-562 leukemia
KM12 colon = tested on: KM12 colon
LOX IMVI melanoma = tested on: LOX IMVI melanoma
M14 melanoma = tested on: M14 melanoma
MALME-3M melanoma = tested on: MALME-3M melanoma
MCF7 breast = tested on: MCF7 breast
MDA-MB-231 breast = tested on: MDA-MB-231 breast
MDA-MB-435 = tested on: MDA-MB-435
MOLT-4 leukemia = tested on: MOLT-4 leukemia
NCI-H226 lung = tested on: NCI-H226 lung
NCI-H23 lung = tested on: NCI-H23 lung
NCI-H460 lung = tested on: NCI-H460 lung
NCI-H522 lung = tested on: NCI-H522 lung
NCI/ADR-RES ovarian = tested on: NCI/ADR-RES ovarian
OVCAR-3 ovarian = tested on: OVCAR-3 ovarian
OVCAR-4 ovarian = tested on: OVCAR-4 ovarian
OVCAR-5 ovarian = tested on: OVCAR-5 ovarian
OVCAR-8 ovarian = tested on: OVCAR-8 ovarian
PC-3 prostate = tested on: PC-3 prostate
RPMI-8226 leukemia = tested on: RPMI-8226 leukemia
RXF 393 renal = tested on: RXF 393 renal
SF-268 CNS = tested on: SF-268 CNS
SF-295 CNS = tested on: SF-295 CNS
SF-539 CNS = tested on: SF-539 CNS
SK-MEL-2 melanoma = tested on: SK-MEL-2 melanoma
SK-MEL-28 melanoma = tested on: SK-MEL-28 melanoma
SK-MEL-5 melanoma = tested on: SK-MEL-5 melanoma
SK-OV-3 ovarian = tested on: SK-OV-3 ovarian
SN12C renal = tested on: SN12C renal
SNB-19 CNS = tested on: SNB-19 CNS
SNB-75 CNS = tested on: SNB-75 CNS
SR leukemia = tested on: SR leukemia
SW-620 colon = tested on: SW-620 colon
T-47D breast = tested on: T-47D breast
TK-10 renal = tested on: TK-10 renal
U251 CNS = tested on: U251 CNS
UACC-257 melanoma = tested on: UACC-257 melanoma
UACC-62 melanoma = tested on: UACC-62 melanoma
UO-31 renal = tested on: UO-31 renal

Cc1cc(Nc2cc(N)ncn2)c(=O)n2c1C(=O)NC21CCCCC1
GI50 (786-0 renal): 22.9 µM
TGI (786-0 renal): > 100 µM
GI50 (A498 renal): 50.7 µM
TGI (A498 renal): > 100 µM
GI50 (A549 NSCLC): > 100 µM
TGI (A549 NSCLC): > 100 µM
GI50 (ACHN renal): 25.3 µM
TGI (ACHN renal): > 100 µM
GI50 (BT-549 breast): 48.4 µM
TGI (BT-549 breast): > 100 µM
GI50 (CCRF-CEM leukemia): > 100 µM
TGI (CCRF-CEM leukemia): > 100 µM
GI50 (COLO 205 colon): > 100 µM
TGI (COLO 205 colon): > 100 µM
GI50 (DU-145 prostate): > 100 µM
TGI (DU-145 prostate): > 100 µM
GI50 (EKVX NSCLC): > 100 µM
TGI (EKVX NSCLC): > 100 µM
GI50 (HCC-2998 colon): > 100 µM
TGI (HCC-2998 colon): > 100 µM
GI50 (HCT-116 colon): > 100 µM
TGI (HCT-116 colon): > 100 µM
GI50 (HCT-15 colon): > 100 µM
TGI (HCT-15 colon): > 100 µM
GI50 (HL-60(TB) leukemia): > 100 µM
TGI (HL-60(TB) leukemia): > 100 µM
GI50 (HOP-62 NSCLC): 31.2 µM
TGI (HOP-62 NSCLC): > 100 µM
GI50 (HOP-92 NSCLC): 13.3 µM
TGI (HOP-92 NSCLC): > 100 µM
GI50 (HS 578T breast): 54.3 µM
TGI (HS 578T breast): > 100 µM
GI50 (HT29 colon): > 100 µM
TGI (HT29 colon): > 100 µM
GI50 (IGROV1 ovarian): 46.7 µM
TGI (IGROV1 ovarian): > 100 µM
GI50 (K-562 leukemia): > 100 µM
TGI (K-562 leukemia): > 100 µM
GI50 (KM12 colon): > 100 µM
TGI (KM12 colon): > 100 µM
GI50 (LOX IMVI melanoma): > 100 µM
TGI (LOX IMVI melanoma): > 100 µM
GI50 (M14 melanoma): > 100 µM
TGI (M14 melanoma): > 100 µM
GI50 (MALME-3M melanoma): > 100 µM
TGI (MALME-3M melanoma): > 100 µM
GI50 (MCF7 breast): > 100 µM
TGI (MCF7 breast): > 100 µM
GI50 (MDA-MB-231 breast): 82 µM
TGI (MDA-MB-231 breast): > 100 µM
GI50 (MDA-MB-435): > 100 µM
TGI (MDA-MB-435): > 100 µM
GI50 (MOLT-4 leukemia): > 100 µM
TGI (MOLT-4 leukemia): > 100 µM
GI50 (NCI-H226 lung): > 100 µM
TGI (NCI-H226 lung): > 100 µM
GI50 (NCI-H23 lung): > 100 µM
TGI (NCI-H23 lung): > 100 µM
GI50 (NCI-H460 lung): > 100 µM
TGI (NCI-H460 lung): > 100 µM
GI50 (NCI-H522 lung): > 100 µM
TGI (NCI-H522 lung): > 100 µM
GI50 (NCI/ADR-RES ovarian): > 100 µM
TGI (NCI/ADR-RES ovarian): > 100 µM
GI50 (OVCAR-3 ovarian): > 100 µM
TGI (OVCAR-3 ovarian): > 100 µM
GI50 (OVCAR-4 ovarian): > 100 µM
TGI (OVCAR-4 ovarian): > 100 µM
GI50 (OVCAR-5 ovarian): > 100 µM
TGI (OVCAR-5 ovarian): > 100 µM
GI50 (OVCAR-8 ovarian): > 100 µM
TGI (OVCAR-8 ovarian): > 100 µM
GI50 (PC-3 prostate): > 100 µM
TGI (PC-3 prostate): > 100 µM
GI50 (RPMI-8226 leukemia): > 100 µM
TGI (RPMI-8226 leukemia): > 100 µM
GI50 (RXF 393 renal): 37.7 µM
TGI (RXF 393 renal): > 100 µM
GI50 (SF-268 CNS): 76.9 µM
TGI (SF-268 CNS): > 100 µM
GI50 (SF-295 CNS): 46.8 µM
TGI (SF-295 CNS): > 100 µM
GI50 (SF-539 CNS): 94.6 µM
TGI (SF-539 CNS): > 100 µM
GI50 (SK-MEL-2 melanoma): 58.2 µM
TGI (SK-MEL-2 melanoma): > 100 µM
GI50 (SK-MEL-28 melanoma): > 100 µM
TGI (SK-MEL-28 melanoma): > 100 µM
GI50 (SK-MEL-5 melanoma): > 100 µM
TGI (SK-MEL-5 melanoma): > 100 µM
GI50 (SK-OV-3 ovarian): 62 µM
TGI (SK-OV-3 ovarian): > 100 µM
GI50 (SN12C renal): > 100 µM
TGI (SN12C renal): > 100 µM
GI50 (SNB-19 CNS): > 100 µM
TGI (SNB-19 CNS): > 100 µM
GI50 (SNB-75 CNS): 9.32 µM
TGI (SNB-75 CNS): > 100 µM
GI50 (SR leukemia): > 100 µM
TGI (SR leukemia): > 100 µM
GI50 (SW-620 colon): > 100 µM
TGI (SW-620 colon): > 100 µM
GI50 (T-47D breast): > 100 µM
TGI (T-47D breast): > 100 µM
GI50 (TK-10 renal): > 100 µM
TGI (TK-10 renal): > 100 µM
GI50 (U251 CNS): 83.7 µM
TGI (U251 CNS): > 100 µM
GI50 (UACC-257 melanoma): > 100 µM
TGI (UACC-257 melanoma): > 100 µM
GI50 (UACC-62 melanoma): > 100 µM
TGI (UACC-62 melanoma): > 100 µM
GI50 (UO-31 renal): 51.8 µM
TGI (UO-31 renal): > 100 µM
